Reference: patent US20250275995A1, “NICOTINAMIDE RIBOSIDE DOSAGE REGIMEN FOR TREATING PARKINSON'S DISEASE” (VESTLANDETS INNOVASJONSSELSKAP AS (VIS), priority 2022, published 2025)
Entries after “also recorded” stand apart in the source; their conditions may differ.

Key:
[1] = tested on: cerebral NAD levels; test: NADPARK: cerebral NAD levels by 31P-MRS; type: in vivo, human
Experimental: A-C: 31P-MRS was performed at baseline (v1) and after 30 days of treatment (v2). A: exemplary data from one subject showing voxel position. Spectra were acquired for each grid position. B (top): average processed spectra from multiple voxels (black) and the model fit (red). B (bottom): the model fit is composed of the convolution of all spectral contributions of a simulated dataset fitted to the experimental data. […] PCr: phosphocreatine. C: comparison of cerebral NAD levels in the placebo (PL) and NR groups at baseline (v1) and visit-2 (v2). […] Individual subjects are indicated by dots. Connecting lines show the change between v1 and v2. The black points and lines show the mean of each group. […] D: FDG-PET data from all subjects in the NR-group, showing the mean NR-Related Pattern (NRRP, top panel), PD-related pattern (PRDP, middle panel), and the overlap of the two (bottom panel). NR partially ameliorates the striatal and thalamic hypermetabolism of PD. E: Between visit changes showing increased NRRP expression in the NR versus the placebo group. […]
NR is well-tolerated. […] While a significant NR-induced increase in cerebral NAD levels was detected at the group level, this effect was not uniform at the individual level.
Cerebral NAD levels, such as NAD/α-ATP-α molar ratios, can be calculated by using ^31P spectroscopy data from magnetic resonance imaging and spectroscopy (MRI/S) e.g., as shown in FIG. 1B. […] For instance, an anatomical T1-weighted image with the following sequence parameters can be acquired to aid positioning of the ^31P-imaging slab: MPRAGE 3D T1-weighted sagittal volume, TE/TR/TI=2.26 ms/2.4 s/900 ms, acquisition matrix=256×256×192, FOV=256×256×192 mm3, 200 Hz/px readout bandwidth, flip angle=8 degrees and total acquisition duration of 5.6 minutes. ^31P spectroscopy data can then be acquired using a 3D chemical shift imaging (CSI) FID sequence with WALTZ4 1H decoupling and continuous wave nuclear Overhauser effect (NOE) enhancement (Peeters et al., NMR Biomed. 2019; 34: e4169). […]

[2] = tested on: NAD metabolome; test: NADPARK: metabolomics, RNA-sequencing and cytokines in blood, muscle, CSF; type: in vivo, human; conditions: NR 1000 mg daily
Experimental: A-C: 31P-MRS was performed at baseline (v1) and after 30 days of treatment (v2). A: exemplary data from one subject showing voxel position. Spectra were acquired for each grid position. B (top): average processed spectra from multiple voxels (black) and the model fit (red). B (bottom): the model fit is composed of the convolution of all spectral contributions of a simulated dataset fitted to the experimental data. […] PCr: phosphocreatine. C: comparison of cerebral NAD levels in the placebo (PL) and NR groups at baseline (v1) and visit-2 (v2). […] Individual subjects are indicated by dots. Connecting lines show the change between v1 and v2. The black points and lines show the mean of each group. […] D: FDG-PET data from all subjects in the NR-group, showing the mean NR-Related Pattern (NRRP, top panel), PD-related pattern (PRDP, middle panel), and the overlap of the two (bottom panel). NR partially ameliorates the striatal and thalamic hypermetabolism of PD. E: Between visit changes showing increased NRRP expression in the NR versus the placebo group. The red line indicates mean values before and after the treatment, black lines indicate individuals with a positive NAD response in the MRS analysis, grey lines indicate individuals without an NAD response in the MRS (*p=0.027, permutation test, 1000 iterations). […] G: Metabolomics in PBMCs, muscle, and CSF.
NR has widespread metabolic and regulatory effects. […] These findings indicate that NR supplementation increases both mitochondrial respiration and proteostasis—two hallmark pathogenic processes involved in PD.

[3] = tested on: blood NAD levels; conditions: cited from earlier work

NC(=O)c1ccc[n+]([C@@H]2O[C@H](CO)[C@@H](O)[C@H]2O)c1 [NR, nicotinamide riboside]
increase in cerebral NAD-levels ([1]; 1000 mg NR, treatment group, mean (SD=20%)): 38%
patients with no evidence of cerebral NAD response ([1]; NR 1000 mg per day, 30 days): three
change in cerebral NAD levels (31P-MRS) ([1]; NR 1000 mg per day, baseline vs 30 days, NR group): highly significant (paired t-test: P=0.016) increase in cerebral NAD levels
NAD-related metabolites in blood (PBMC), muscle and CSF ([2]; 30 days, metabolomics): highly significant (p<<0.001 for all tests) increases in the acid form of NAD (NAAD), and nicotinamide (Nam) degradation products; also recorded: highly significant increase in NAD-related metabolites in blood, muscle and CSF
RNA-sequencing in blood and muscle biopsy ([2]; NR group): highly significant (FDR<10^−8) upregulation of the mitochondrial, proteasomal and lysosomal pathways
inflammatory cytokines in the central nervous system ([2]; Phase I study): downregulates multiple inflammatory cytokines in the central nervous system
blood NAD levels in a 24h-period after intake ([3]; 1000 mg NR after increasing NR doses twice daily for nine days): stably increased
blood NAD levels 23.8 h after intake ([3]; 1000 mg NR, single subject): decreased, but not yet to baseline
time of peak blood NAD levels after intake ([3]; 1000 mg NR, single subject): 7.7 h
increase of blood NAD^+ levels ([3]; 1000 mg or 2000 mg NR daily, reported studies): 1.37-2.8 fold
